Source: patent US20250212873A1, “VOLATILE HDAC INHIBITORS FOR THERAPEUTIC AND PLANT APPLICATIONS” (The Regents of the University of California, priority 2022, published 2025)
“Also recorded” adds a separate entry of the source. Where a name gives a salt, the structure may show the parent alone.

Key:
[1] = test system: Arabidopsis thaliana seedlings; assay: Odor Exposure assay, Arabidopsis thaliana seedlings (root and leaf development); assay type: in vivo; settings: for lateral root growth (number of lateral roots) / leaf development (number of large / true leaves) / root growth (primary root length): 7-day exposure; for lateral root growth (number of lateral roots) / leaf development (number of large / true leaves) / root growth: headspace of 1% v/v in Paraffin oil; for root growth (primary root length): headspace of solution in Paraffin oil; for root growth: 3.5-day exposure
Method: The Odor Exposure assay consists of controlled exposure of volatile odor compounds to model plant Arabidopsis within enclosed aquariums and similar growth conditions (23° C. with a 12-hour light/dark cycle). For Arabidopsis, seedlings were aligned on agar plates for growth after a 4-day cold treatment process. The agar plates with seedlings were then placed in enclosed aquariums with moist paper towels soaked in 10 ml of DI water for humidity. The plates were placed along the wall, approximately 12 cm from odor dispensers which resided in the center of the glass tank.
The test compound odor dispensers, consisting of (60×15 mm) polystyrene Petri dishes containing 2 ml of 1% v/v in PO, are replaced at the 3.5, 5, and 6-day time mark during the 7-day experiment. Root growth is marked during each time mark and the plates were imaged. The plants are to be collected after the 7-day exposure, photographed, and the leaves/roots carefully dissected separated, flash frozen in liquid nitrogen, and preserved for future sequencing. Root growth is measured using ImageJ.
In order to study the physiological effects of long-term exposure to microbial volatiles the model system Arabidopsis was exposed for […] to diacetyl, a volatile chemical emitted by fermentation by yeast or microbial degradation in the soil associated with roots (R. J. Morcillo et al., EMBO J 39, e102602 (2020); M. A. Farag, et al., Phytochemistry 67, 2262-2268 (2006); and C. M. Ryu et al., P Natl Acad Sci USA 100, 4927-4932 (2003). The Odor Exposure assay consisted of controlled exposure of volatile HDAC inhibiting compounds to model plant Arabidopsis within enclosed aquariums and similar growth conditions. The test compound odor cartridges, consisting of 60×15 mm polystyrene Petri dishes containing 2 ml of indicated concentration in Paraffin Oil, were replaced at the 3.5, 5, and 6-day time mark during the 7-day experiment (FIG. 1A, left). In separate experiments the weight loss from the odor cartridges over time was measured and used it to calculate the concentration of diacetyl in the glass chambers in parts per million (FIG. 1A, right).
In order to directly evaluate whether exposure to vapors of the four HDAC-inhibitory VOCs affect root development, we performed a set of experiments using A. thaliana seedlings as before. Solutions for each of the four chemicals on a small petri dish were placed away from the seedlings growing in agar plate and enclosed in glass tank. The Root tips were marked at specified days post treatment start and photographs analyzed. The plants were collected after the 7-day exposure, photographed, and the roots were separated. Detailed measurements were made from the photos using ImageJ and the root length and numbers of lateral roots quantified at day 3.5 and day 7 after start if the treatment (FIG. 1B).
The Odor Exposure assay consists of controlled exposure of volatile odor compounds to model plant Arabidopsis within enclosed aquariums and similar growth conditions (23° C. with a 12-hour light/dark cycle). The test compound odor cartridges, consisting of (60×15 mm) polystyrene Petri dishes containing 2 ml of 1% v/v in paraffin oil (PO), were replaced at the 3.5, 5, and 6-day time mark during the 7-day experiment. Root growth was marked during each time point and the plates were imaged. Numbers of true leaves were also counted. The plants are to be collected after the 7-day exposure, photographed, and the leaves/roots carefully dissected separated, flash frozen in liquid nitrogen, and preserved for future sequencing. Root growth is measured using ImageJ.

[2] = test system: Class I and Class II HDACs; assay: In vitro assays with purified human Class I and II HDACs (panel statements); assay type: biochemical; settings: 15 mM
Method: Presented are data for selected compounds that act as Histone deacetylase inhibitors in vitro or HDAC inhibitors. 26 compounds were screened against purified human HDACs.
HDAC activity of class I HDACs (HDAC1 and 3) was measured with the fluorometric HDAC Activity Assay kit: HDAC1 (10011563, Cayman Chemical, Ann Arbor, MI) and HDAC3 (50073 BPS Bioscience, San Diego, CA), according to the manufacturer's instructions. HDAC activity of class II HDACs (HDAC4 and HDAC6) was measured with the fluorometric HDAC Activity Assay kit: HDAC4, […] (50064 and 50076, BPS Bioscience, San Diego, CA), according to the manufacturer's instructions. All compounds were tested in single dose duplicate mode at 15 mM concentrations in 1% DMSO, based on the IC50 of 2,3-butanedione established in earlier work. Due to interference, concentrations of >30 mM were not used in the IC50 calculation. To account for any interference at lower concentrations, all baseline measurements of blank wells (no HDAC enzyme) were performed and subtracted with the various concentrations of 2,3-butanedione.
Diacetyl and 3 structurally related VOCs were evaluated using in vitro assay kits for measuring activity of four purified HDACs. Of the four VOCs), each has a different functional group, two are natural in origin, previously detected from microbes that are known to be present in soil (M. C. Lemfack et al., Nucleic Acids Res 46, D1261-D1265 (2018); and R. H. Cagan, W. N. Zeiger, Proc. Nat. Acad. Sci. U.S.A. 75, 4679-4683 (1978)) and two that are not (α-angelica lactone and ethyl pyruvate). […] All 4 VOCs inhibited both Class I HDACs (L. L. Walling, The Myriad Plant Responses to Herbivores. J Plant Growth Regul 19, 195-216 (2000); and M. Heil, R. Karban, Trends Ecol Evol 25, 137-144 (2010)) and the Class II HDAC6 with differences in degree (FIG. 2A,B).

[3] = test system: A. thaliana plants (Col-0); assay: Flowering assay; assay type: in vivo, Arabidopsis thaliana; settings: vapors from 0.1% solution
Text: Dramatic effects of VOCs have been seen in the seedling stage. The effects on with flowering timing were observed, since the process involves numerous changes in gene expression and therefore potentially susceptible to HDAC inhibitory volatiles. Mutants in HDACs like HDA5 show delayed flowering due to upregulation of flowering repressor genes like FLC and MAF1 (M. Luo et al., Plant J 82, 925-936 (2015)). Conversely, mutants in HDA9lead to early flowering due to increased expression of FLOWERING LOCUS T (FT) and AGAMOUS-LIKE 19 (AGL19) (M. J. Kang, et al., New Phytol 206, 281-294 (2015)). We placed 3 weeks old A. thaliana plants in the glass chambers and exposed them to the vapors of two of the VOCs, diacetyl and α-angelica lactone volatilizing from 0.1% solutions in the glass chamber.
Twenty-seven day old A. thaliana plants (Col-0), that had been transplanted at day 7 to soil, were placed in 10-gallon glass aquarium as chamber along with a petridish containing 2 ml of chemical dissolved in PO or PO alone were placed at the other side of the container. Plants were exposed to odors until all plants began to flower, with odor cartridges being replaced daily. Signs of flower buds opening were counted as plant flowering. One-way analysis of Variance (ANOVA) between groups was performed for plant exposure quantitative data using Graph Pad Prism 9.

PC3 Cancer cell line = assay: Cancer cell viability assay, PC3; assay type: cell-based; settings: 33 uM, triplicates
Method: (§1) Cells were maintained in a 37° C. incubator with 5% CO2 throughout the experiment. Compound stocks were dissolved in 10% DMSO, but final concentrations were made fresh in complete media as needed. 10% DMSO solvent was used as control in complete media. Cells were seeded onto 12-well plates and allowed 12-24 hours until treatment began to allow cells to adhere to wells. This was followed by minimum 5-day treatment of compounds, changing the media with treatment every 48 hours. Cell lines A549, PC3, and SK-MEL-5 were seeded at 8000 cells/well which would provide 80-100% confluency after 6-day growth. SH-SY5Y was seeded at 8000 cells/well then 16,000 cells/well due to slower growth and given at least 10 days for sufficient growth. After allotted growth times, cell counts were performed via Countess™ automated cell counter. All assays were completed with a minimum of triplicate replicates for all conditions and analyzed through GraphPad Prism One-way ANOVA for significance.

SH-SY5Y Cancer cell line = assay: Cancer cell viability assay, SH-SY5Y; assay type: cell-based; settings: 33 micro-molar
Method: as §1

bacteria and fungi = settings: literature (Debebe et al.); cited from earlier work
[4] = test system: A. thaliana plants (Col-0); assay: Weed killing assay; assay type: in vivo, Arabidopsis thaliana; settings: 1% (volume/volume) in PO, 7 days vapor exposure, 4 weeks recovery
Text: Since large scale changes in gene expression occur it is presumed that higher doses of some of the compounds could negatively affect some plants, even causing death. Since Arabidopsis thaliana is also considered a type of weed and goes by the common name Thale cress, it was used as a model to test the weed killing potential at higher doses. In order to evaluate the activity of some of these volatiles in plant killing twenty-seven day old A. thaliana plants (Col-0), that had been transplanted at day 7 to soil, were placed in 10-gallon glass aquarium as chamber along with a petridish containing 2 ml of chemical dissolved in PO at 1% (volume/volume) or PO alone were placed at the other side of the container. Plants were exposed to odor vapors for 7 days and observed for death.
Twenty-seven day old A. thaliana plants (Col-0), that had been transplanted at day 7 to soil, were placed in 10-gallon glass aquarium as chamber along with a petridish containing 2 ml of chemical dissolved in PO at 1% (volume/volume) or PO alone were placed at the other side of the container. Plants were exposed to odor vapors for 7 days and observed for death.

[5] = test system: histone deacetylase enzymes (HDACs); settings: literature (Shimazu et al.); cited from earlier work
[6] = listed as Alpha angelica lactone

CCC(=O)C(=O)CC [3,4-hexanedione]
lateral root growth (number of lateral roots) [1]: significant phenotypic changes; also recorded: promoted lateral root growth | leaf development (number of large / true leaves) [1]: changes in the number of true leaf development/growth; also recorded: significant increase; also recorded: significant phenotypic changes; also recorded: The trend for the compounds were to inhibit leave development, except for 3,4-hexanedione | root growth (primary root length) [1]: all the compounds except 3,4-hexanedione demonstrated significant root growth inhibition

CC1=CCC(=O)O1 [alpha angelica lactone]
inhibition of Class II HDACs compared with Class I [2]: inhibits only Class 2 HDACs strongly | inhibition of Class II HDACs compared with Class I ([2]; listed as α-angelica lactone): inhibited Class II HDACs more strongly than Class I | root growth [1]: significant root growth inhibition | lateral root growth (number of lateral roots) [1, 6]: significant phenotypic changes; also recorded: promoted lateral root growth | leaf development (number of large / true leaves) [1, 6]: significant phenotypic changes | leaf development (number of large / true leaves) ([1]; listed as a-angelica lactone): significant decreases | leaf development (number of large / true leaves) ([1]; listed as α-Angelica lactone): changes in the number of true leaf development/growth | delay in flowering (in words) [3]: approximately a week

CCOC(=O)C(C)=O [ethyl pyruvate]
root growth [1]: significant root growth inhibition | lateral root growth (number of lateral roots) [1]: inhibition; also recorded: significant phenotypic changes | lateral root growth (number of lateral roots) ([1]; listed as Ethyl pyruvate): inhibited | root growth (primary root length) [1]: inhibited | changes in proliferation, PC3 (PC3 Cancer cell line): No Significant changes in proliferations | changes in proliferation, SH-SY5Y (SH-SY5Y Cancer cell line): Significant changes in proliferations were noted only for 33 micro molar 2,3-butanedione treatment | antimicrobial action on bacteria and fungi (bacteria and fungi): potent antimicrobial

CCCOC=O [propyl formate]
plants killed (dead) [4]: 7 of 8 | changes in proliferation, PC3 (PC3 Cancer cell line): No Significant changes in proliferations | changes in proliferation, SH-SY5Y (SH-SY5Y Cancer cell line): Significant changes in proliferations were noted only for 33 micro molar 2,3-butanedione treatment

CC(O)CC(=O)O (stereo not drawn) [β-hydroxybutyrate]
inhibition of histone deacetylase enzymes (HDACs) [5]: known inhibitor
